Counter-ions that a name gives are not always drawn.
Molecular target: IRE1α (Homo sapiens (Human), UniProt O75460, D688N)
Assay: IRE1α TR-FRET competition binding assay (IRE1α HTRF)
Conditions: TR-FRET competition binding to kinase domain of IRE1α
In short: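 Competition of compounds against an Alexa fluor 647 ATP-site probe (2 nM final) for the His-tagged kinase domain (0.25 nM final), detected via 2 nM Eu anti-His antibody by TR-FRET, 665 and 615 nm emission. Protein–antibody premix 1 h, 4° C; reaction 1 h, room temperature, pH 7.5 HEPES buffer.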

Chain of IRE1α (O75460 547-977 D688N): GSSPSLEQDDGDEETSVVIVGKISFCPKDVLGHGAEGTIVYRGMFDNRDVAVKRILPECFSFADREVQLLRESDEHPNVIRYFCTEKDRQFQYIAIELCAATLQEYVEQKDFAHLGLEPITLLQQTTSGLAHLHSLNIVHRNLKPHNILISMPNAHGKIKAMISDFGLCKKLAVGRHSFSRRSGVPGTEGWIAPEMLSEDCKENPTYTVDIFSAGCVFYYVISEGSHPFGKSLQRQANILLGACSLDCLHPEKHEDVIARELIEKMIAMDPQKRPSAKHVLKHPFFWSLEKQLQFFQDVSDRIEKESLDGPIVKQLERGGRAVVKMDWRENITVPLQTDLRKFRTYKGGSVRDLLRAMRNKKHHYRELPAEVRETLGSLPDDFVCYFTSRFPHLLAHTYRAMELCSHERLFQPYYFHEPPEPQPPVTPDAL

Row | Compound | IC50 [nM]
1 | CC(C)n1c(=O)c(-c2cc(F)c(NS(=O)(=O)CCC(C)(F)F)c(F)c2F)cc2cnc(N[C@H]3CC[C@H](N(C)C)CC3)nc21 [Compound 33, N-(4-(2-(((1r,4r)-4-(Dimethylamino)cyclohexyl)amino)-8-isopropyl-7-oxo-7,8-dihydropyrido[2,3-d]pyrimidin-6-yl)-2,3,6-trifluorophenyl)-3,3-difluorobutane-1-sulfonamide] | 0.98
2 | O=c1c(-c2ccc(NS(=O)(=O)Cc3ccccc3)c(F)c2F)cc2cnc(N[C@@H]3CNC[C@@H](F)C3)nc2n1CCF [Compound 53, N-(2,3-Difluoro-4-(8-(2-fluoroethyl)-2-(((3S,5S)-5-fluoropiperidin-3-yl)amino)-7-oxo-7,8-dihydropyrido[2,3-d]pyrimidin-6-yl)phenyl)-1-phenylmethanesulfonamide] | 0.71
3 | CC(C)n1c(=O)c(-c2c(F)cc(NS(=O)(=O)Cc3ccc(F)cc3)c(F)c2F)cc2cnc(N[C@H]3CC[C@H](N(C)C)CC3)nc21 [Compound 128, N-(4-(2-(((1r,4r)-4-(Dimethylamino)cyclohexyl)amino)-8-isopropyl-7-oxo-7,8-dihydropyrido[2,3-d]pyrimidin-6-yl)-2,3,5-trifluorophenyl)-1-(4-fluorophenyl)methanesulfonamide] | 0.15
4 | CC(C)n1c(=O)c(-c2ccc(NS(=O)(=O)CC3C(F)(F)C34CCC4)c(F)c2)nc2cnc(N[C@H]3CC[C@H](N(C)C)CC3)nc21 (stereo partly shown) [Example 257, 1-(2,2-Difluorospiro[2.3]hexan-1-yl)-N-[4-[2-[[4-(dimethylamino)cyclohexyl]amino]-8-isopropyl-7-oxo-pteridin-6-yl]-2-fluoro-phenyl]methanesulfonamide] | 0.2
5 | CC(C)n1c(=O)c(-c2ccc(NS(=O)(=O)c3cccnc3)c(F)c2)nc2cnc(N[C@H]3CC[C@H](N(C)C)CC3)nc21 [Compound 191, N-(4-(2-(((1r,4r)-4-(Dimethylamino)cyclohexyl)amino)-8-isopropyl-7-oxo-7,8-dihydropteridin-6-yl)-2-fluorophenyl)pyridine-3-sulfonamide hydrochloride] | 0.25
6 | Cc1nc(NS(=O)(=O)Cc2ccc(F)cc2)ccc1-c1nc2cnc(N[C@H]3CC[C@H](N(C)C)CC3)nc2n(C(C)C)c1=O [Example 252, N-[5-[2-[[4-(Dimethylamino)cyclohexyl]amino]-8-isopropyl-7-oxo-pteridin-6-yl]-6-methyl-2-pyridyl]-1-(4-fluorophenyl)methanesulfonamide] | 1
7 | N-(2,3,6-trifluoro-4-(8-isopropyl-2-((4-((2-methoxyethyl)(methyl)amino)cyclohexyl)amino)-7-oxo-7,8-dihydropyrido[2,3-d]pyrimidin-6-yl)phenyl)propane-1-sulfonamide [Compound 101A] | 0.35
8 | CCCS(=O)(=O)Nc1ccc(-c2nc3cnc(N[C@H]4CC[C@H](N(C)C)CC4)nc3n(C(C)C)c2=O)c(F)c1 [Compound 161, N-(4-(2-(((1r,4r)-4-(Dimethylamino)cyclohexyl)amino)-8-isopropyl-7-oxo-7,8-dihydropteridin-6-yl)-3-fluorophenyl)propane-1-sulfonamide] | 0.18
9 | CC(C)n1c(=O)c(-c2ccc(NS(=O)(=O)CCC(F)(F)F)c(F)c2)cc2cnc(N[C@H]3CCC[C@@H](N)C3)nc21 [Compound 108, N-(4-(2-(((1S,3R)-3-Aminocyclohexyl)amino)-8-isopropyl-7-oxo-7,8-dihydropyrido[2,3-d]pyrimidin-6-yl)-2-fluorophenyl)-3,3,3-trifluoropropane-1-sulfonamide hydrochloride] | 23
10 | CC(C)n1c(=O)c(-c2ccc(NS(=O)(=O)CCC(F)(F)F)c(F)c2)cc2cnc(N[C@H]3CC[C@H](N(C)C)[C@@H](O)C3)nc21 [Compound 228, N-(4-(2-(((1S,3S,4S)-4-(dimethylamino)-3-hydroxycyclohexyl)amino)-8-isopropyl-7-oxo-7,8-dihydropyrido[2,3-d]pyrimidin-6-yl)-2-fluorophenyl)-3,3,3-trifluoropropane-1-sulfonamide] | 0.2
